This passage reports IC50 results from patent US20220388972A1, “CHROMAN-4-ONE DERIVATIVES FOR THE TREATMENT AND PROPHYLAXIS OF HEPATITIS B VIRUS INFECTION” (Hoffmann-La Roche Inc., priority 2018, published 2022).

Each structure is given as a SMILES string.

The assay concerns HBV cccDNA (HBeAg as surrogate marker) in HepDES19 cells. The experiment in a line: Engineered HepDES19 primary screen assay (HBeAg as surrogate marker for cccDNA). The following applies: Hepatitis B virus, HepDES19, 120 h. Type of assay: cell-based. The text has this:
The assay was employed to screen for cccDNA inhibitors. HepDES19 is a cccDNA-producing cell line. In this cell line, HBeAg in the cell culture supernatant as surrogate marker, as HBeAg production depends on cccDNA level and activity. HepDES19 is an engineered cell line which contains a 1.1 unit length HBV genome, and pgRNA transcription from the transgene is controlled by Tetracycline (Tet). In the absence of Tet, pgRNA transcription will be induced, but HBV e antigen (HBeAg) could not be produced from this pgRNA due to very short leader sequence before the HBeAg start codon and the start codon is disrupted. Only after cccDNA is formed, the missing leader sequence and start codon mutation would be restored from the 3′-terminal redundancy of pgRNA, and then HBeAg could be synthesized. Therefore, HBeAg could be used as a surrogate marker for cccDNA (Zhou, T. et al., Antiviral Res. (2006), 72 (2), 116-124; Guo, H. et al., J. Virol. (2007), 81 (22), 12472-12484).
HepDES19 cells were seeded at 2×10^6 cells per T150 flask and cultured with the culture medium (Dulbecco's Modified Eagle Medium: Nutrient Mixture F-12 [DMEM-F12, Gibco Cat. 11320-82], 10% Fetal Bovine Serum [FBS, Clontech Cat. 631101], 0.1 mM Non-Essential Amino Acids Solution [NEAA, Gibco Cat. 11140-050], 50 μg/mL Penicillin-Streptomycin [PS, Invitrogen Cat. 15140-163], 500 μg/mL Geneticin [G418, Invitrogen Cat. 10131-027]) containing 3 μg/mL Tet (Sigma, Cat. 87128) for 5 days. Cells were then seeded at 4×10^6 cells per T150 in the same culture medium as described above in the absence of Tet for 8 days. Cells were then harvested and frozen at density of 2×10^6 cells per mL. For compound testing, the frozen cells were thawed and seeded into 96-well plates at a density of 6×10^4 cells per well. At 24 hours after seeding, half log serial dilutions of compounds made with Dimethyl sulfoxide (DMSO, Sigma, Cat. D2650) were further diluted with the same culture medium as described above before they were added to the cells to reach desired final compound concentrations and 1% DMSO concentration. Plates were then incubated at 37° C. for another 5 days before measurement of HBeAg level and cell viability. Intracellular HBeAg level were measured with enzyme-linked immunosorbent assay (ELISA) kit (Shanghai Kehua Diagnostic Medical Products Co., Ltd). Cell viability was assessed using Cell Counting Kit-8 (DonJindo, Cat. CK04-20). IC50 values were derived from the dose-response curve using 4 parameters logistic curve fit method.
The compounds of the present invention were tested for their capacity to inhibit extracellular HBeAg level as described herein.
Broadly, the IC50 is the concentration that gives 50% inhibition. A low value points to higher potency. `COc1ccc2c(c1Cl)OC(c1ccc(C(F)(F)F)cc1OCCC(=O)O)CC2=O` (stereo not drawn) [Example 4, 3-[2-(8-chloro-7-methoxy-4-oxo-chroman-2-yl)-5-(trifluoromethyl)phenoxy]propanoic Acid] had an IC50 of 5250 nM.
Next, `COc1cc(Cl)c2c(c1)C(=O)CC(c1ccc(C(F)(F)F)cc1OCCC(=O)O)O2` (stereo not drawn) [Example 5, 3-[2-(8-chloro-6-methoxy-4-oxo-chroman-2-yl)-5-(trifluoromethyl)phenoxy]propanoic Acid]: 3060 nM; `O=C(O)CCOc1cc(C(F)(F)F)ccc1C1CC(=O)c2c(O)ccc(Cl)c2O1` (stereo not drawn) [Example 6, 3-[2-(8-chloro-5-hydroxy-4-oxo-chroman-2-yl)-5-(trifluoromethyl)phenoxy]propanoic Acid]: 5220 nM.
`Cc1cc(C2CC(=O)c3cccc(Cl)c3O2)c(OCCC(=O)O)cc1Br` (stereo not drawn) [Example 7, 3-[5-bromo-2-(8-chloro-4-oxo-chroman-2-yl)-4-methyl-phenoxy]propanoic Acid] yielded a half-inhibitory concentration (IC50) of 9410 nM.
Next, `COc1cc(C2CC(=O)c3cccc(Cl)c3O2)c(OCCC(=O)O)cc1Br` (stereo not drawn) [Example 8, 3-[5-bromo-2-(8-chloro-4-oxo-chroman-2-yl)-4-methoxy-phenoxy]propanoic Acid]: 11300 nM.
Next, `COc1cc(OCCC(=O)O)c(C2CC(=O)c3cccc(Cl)c3O2)cc1C` (stereo not drawn) [Example 9, 3-[2-(8-chloro-4-oxo-chroman-2-yl)-5-methoxy-4-methyl-phenoxy]propanoic Acid]: 9410 nM; `COc1cc(C2CC(=O)c3cccc(Cl)c3O2)c(OCCC(=O)O)cc1Cl` (stereo not drawn) [Example 10, 3-[5-chloro-2-(8-chloro-4-oxo-chroman-2-yl)-4-methoxy-phenoxy]propanoic Acid]: 11400 nM.
Under `O=C(O)CCOc1cc2c(cc1C1CC(=O)c3cccc(Cl)c3O1)OCO2` (stereo not drawn) [Example 12, 3-[[6-(8-chloro-4-oxo-chroman-2-yl)-1,3-benzodioxol-5-yl]oxy]propanoic Acid] stands 10100 nM; under `Cc1cc(C2CC(=O)c3cccc(Cl)c3O2)c(OCCC(=O)O)cc1Cl` (stereo not drawn) [Example 14, 3-[5-chloro-2-(8-chloro-4-oxo-chroman-2-yl)-4-methyl-phenoxy]propanoic Acid], 1050 nM.
On to `O=C(O)CCOc1cc(OC(F)(F)F)c(Br)cc1C1CC(=O)c2cccc(Cl)c2O1` (stereo not drawn) [Example 15, 3-[4-bromo-2-(8-chloro-4-oxo-chroman-2-yl)-5-(trifluoromethoxy)phenoxy]propanoic Acid], for which half-maximal inhibition (IC50) required 1500 nM.
Under `O=C(O)CCOc1cc(Br)ccc1[C@@H]1CC(=O)c2cccc(Cl)c2O1` [Example 16-A, 3-[5-bromo-2-[(2S)-8-chloro-4-oxo-chroman-2-yl]phenoxy]propanoic Acid] stands 2430 nM.
On to `O=C(O)CCOc1cc(Br)ccc1[C@H]1CC(=O)c2cccc(Cl)c2O1` [Example 16-B, 3-[5-bromo-2-[(2R)-8-chloro-4-oxo-chroman-2-yl]phenoxy]propanoic Acid], for which half-maximal inhibition (IC50) was put at 480 nM.
Under `O=C1CC(c2ccc(C(F)(F)F)cc2OC2CC(C(=O)O)C2)Oc2c(Cl)cccc21` (stereo not drawn) [Example 17, 3-[2-(8-chloro-4-oxo-chroman-2-yl)-5-(trifluoromethyl)phenoxy]cyclobutanecarboxylic Acid] stands 1560 nM.
Under `Cc1cc(C2CC(=O)c3cccc(Cl)c3O2)c(OC2CC(C(=O)O)C2)cc1Cl` (stereo not drawn) [Example 18, 3-[5-chloro-2-(8-chloro-4-oxo-chroman-2-yl)-4-methyl-phenoxy]cyclobutanecarboxylic Acid] stands 765 nM; under `CC(C)(COc1cc(C(F)(F)F)ccc1C1CC(=O)c2cccc(Cl)c2O1)C(=O)O` (stereo not drawn) [Example 19, 3-[2-(8-chloro-4-oxo-chroman-2-yl)-5-(trifluoromethyl)phenoxy]-2,2-dimethyl-propanoic Acid], 260 nM; under `O=C1CC(c2ccc(C(F)(F)F)cc2OCCOC2CC(C(=O)O)C2)Oc2c(Cl)cccc21` (stereo not drawn) [Example 20, 3-[2-[2-(8-chloro-4-oxo-chroman-2-yl)-5-(trifluoromethyl)phenoxy]ethoxy]cyclobutanecarboxylic Acid], 10 nM.
Turning to `O=C(O)COCCOc1cc(C(F)(F)F)ccc1C1CC(=O)c2cccc(Cl)c2O1` (stereo not drawn) [Example 21, 2-[2-[2-(8-chloro-4-oxo-chroman-2-yl)-5-(trifluoromethyl)phenoxy]ethoxy]acetic Acid], the concentration for half-maximal inhibition (IC50) is 4890 nM.
Next, `Cc1ccc(C2CC(=O)c3cccc(Cl)c3O2)c(OCCCOCC(=O)O)c1` (stereo not drawn) [Example 22, 2-[3-[2-(8-chloro-4-oxo-chroman-2-yl)-5-methyl-phenoxy]propoxy]acetic Acid]: 1990 nM.
Next, `O=C(O)COCCCOc1cc(C(F)(F)F)ccc1C1CC(=O)c2cccc(Cl)c2O1` (stereo not drawn) [Example 23, 2-[3-[2-(8-chloro-4-oxo-chroman-2-yl)-5-(trifluoromethyl)phenoxy]propoxy]acetic Acid]: 1560 nM; `O=C(O)COCCCOc1cc(C(F)(F)F)ccc1C1CC(=O)c2ccc(F)c(Cl)c2O1` (stereo not drawn) [Example 24, 2-[3-[2-(8-chloro-7-fluoro-4-oxo-chroman-2-yl)-5-(trifluoromethyl)phenoxy]propoxy]acetic Acid]: 7140 nM; `O=C(O)CCCOc1cc(C(F)(F)F)ccc1C1CC(=O)c2ccc(F)c(Cl)c2O1` (stereo not drawn) [Example 25, 4-[2-(8-chloro-7-fluoro-4-oxo-chroman-2-yl)-5-(trifluoromethyl)phenoxy]butanoic Acid]: 1180 nM.
Next, `O=C(O)COc1cc(C(F)(F)F)ccc1C1CC(=O)c2ccc(F)c(Cl)c2O1` (stereo not drawn) [Example 26, 2-[2-(8-chloro-7-fluoro-4-oxo-chroman-2-yl)-5-(trifluoromethyl)phenoxy]acetic Acid]: 2780 nM; `CCS(=O)(=O)N[C@H](COc1cc(C(F)(F)F)ccc1C1CC(=O)c2cccc(Cl)c2O1)C(=O)OC` (stereo partly drawn) [Example 27, Methyl (2R)-3-[2-(8-chloro-4-oxo-chroman-2-yl)-5-(trifluoromethyl)phenoxy]-2-(ethylsulfonylamino)propanoate]: 580 nM; `CCS(=O)(=O)N[C@@H](COc1cc(C(F)(F)F)ccc1C1CC(=O)c2cccc(Cl)c2O1)C(=O)O` (stereo partly drawn) [Example 29, (2S)-3-[2-(8-chloro-4-oxo-chroman-2-yl)-5-(trifluoromethyl)phenoxy]-2-(ethylsulfonylamino)propanoic Acid]: 1910 nM.
For `NS(=O)(=O)N[C@H](COc1cc(C(F)(F)F)ccc1[C@@H]1CC(=O)c2cccc(Cl)c2O1)C(=O)O` [Example 30-A, (2R)-3-[2-[(2S)-8-chloro-4-oxo-chroman-2-yl]-5-(trifluoromethyl)phenoxy]-2-(sulfamoylamino)propanoic Acid], inhibition was half-maximal at 3370 nM (IC50).
Next, `NS(=O)(=O)N[C@H](COc1cc(C(F)(F)F)ccc1[C@H]1CC(=O)c2cccc(Cl)c2O1)C(=O)O` [Example 30-B, (2R)-3-[2-[(2R)-8-chloro-4-oxo-chroman-2-yl]-5-(trifluoromethyl)phenoxy]-2-(sulfamoylamino)propanoic Acid]: 10700 nM; `CCNS(=O)(=O)N[C@H](COc1cc(C(F)(F)F)ccc1[C@@H]1CC(=O)c2cccc(Cl)c2O1)C(=O)O` [Example 31-A, (2R)-3-[2-[(2S)-8-chloro-4-oxo-chroman-2-yl]-5-(trifluoromethyl)phenoxy]-2-(ethylsulfamoylamino)propanoic acid]: 3300 nM.
Under `CCNS(=O)(=O)N[C@H](COc1cc(C(F)(F)F)ccc1[C@H]1CC(=O)c2cccc(Cl)c2O1)C(=O)O` [Example 31-B, (2R)-3-[2-[(2R)-8-chloro-4-oxo-chroman-2-yl]-5-(trifluoromethyl)phenoxy]-2-(ethylsulfamoylamino)propanoic Acid] stands 10900 nM; under `COCCCOc1cc(C(F)(F)F)ccc1C1CC(=O)c2ccc(F)c(Cl)c2O1` (stereo not drawn) [Example 32, 8-chloro-7-fluoro-2-[2-(3-methoxypropoxy)-4-(trifluoromethyl)phenyl]chroman-4-one], 1930 nM; under `O=C1CC(c2ccc(C(F)(F)F)cc2OCCCO)Oc2c1ccc(F)c2Cl` (stereo not drawn) [Example 33, 8-chloro-7-fluoro-2-[2-(3-hydroxypropoxy)-4-(trifluoromethyl)phenyl]chroman-4-one], 680 nM.
